Drawing on ChEMBL document CHEMBL4476874, “Compounds for the modulation of myc activity” (2018), this text covers IC50 for 25 compounds.

For one assay, the system named is NCI-H2171. Briefly: Antiproliferative activity against human NCI-H2171 cells after 72 hrs by ATPlite assay. Conditions: NCI-H2171, 72 h. The format is functional, cell-based. For orientation: In ATP-based viability assays light output follows the ATP content of the culture.
The target of assay [1] is Myc proto-oncogene protein (Homo sapiens, UniProt P01106). Briefly: Inhibition of human c-Myc assessed as reduction in c-Myc/Max/Ebox DNA complex formation using pre-formed complex of c-Myc and biotinylated DNA containing single Ebox-sequence followed by compound addition and further addition of his6-tagged c-Max and incubated for 2 hrs by AlphaScreen assay. In general terms: Bead proximity is the source of the signal in Alpha formats.
Myc proto-oncogene protein, sequence (P01106 whole entry): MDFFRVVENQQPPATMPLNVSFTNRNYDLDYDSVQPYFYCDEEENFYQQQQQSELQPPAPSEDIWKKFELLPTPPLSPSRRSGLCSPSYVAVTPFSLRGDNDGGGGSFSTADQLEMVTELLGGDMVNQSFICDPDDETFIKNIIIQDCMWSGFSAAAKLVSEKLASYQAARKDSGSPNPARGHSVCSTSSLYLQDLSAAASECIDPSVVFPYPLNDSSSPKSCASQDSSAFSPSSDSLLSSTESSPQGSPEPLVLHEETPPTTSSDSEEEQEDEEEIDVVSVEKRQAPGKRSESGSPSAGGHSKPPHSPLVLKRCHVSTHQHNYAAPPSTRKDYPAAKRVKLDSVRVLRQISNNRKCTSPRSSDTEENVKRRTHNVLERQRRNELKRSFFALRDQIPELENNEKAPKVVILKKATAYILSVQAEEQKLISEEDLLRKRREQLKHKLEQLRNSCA

As a reminder, the IC50 is the concentration at which inhibition is half-maximal. In the case of `COCCNCCC(=O)Nc1sc2c(c1-c1nc3cc(-c4cnn(Cc5ccccc5)c4)ccc3s1)CCNC2`, the half-maximal inhibitory concentration (IC50) in the assay on NCI-H2171 was under 300 nM; in assay [1], 1000 to 10000 nM.

Turning to `COCCNCCC(=O)Nc1sc2c(c1-c1nc3cc(-c4ccc(C(F)(F)F)nc4)ccc3s1)CCNC2`, the IC50 in the assay on NCI-H2171 was under 300 nM; in assay [1] it was 1000 to 10000 nM.

Consider `COCCNCCC(=O)Nc1sc2c(c1-c1nc3ccc(-c4c[nH]nc4C)cc3s1)CCNC2`, for which the IC50 with NCI-H2171 was under 300 nM; in assay [1] it was 300 to 1000 nM.

`COCCNCCC(=O)Nc1sc2c(c1-c1nc3ccc(-c4ccncc4C)cc3s1)CCNC2`: the IC50 with NCI-H2171 was under 300 nM; in assay [1], over 10000 nM.

As to `COCCNCCC(=O)Nc1sc2c(c1-c1nc3ccc(-c4ccnc(C)c4)cc3s1)CCNC2`, the figures for the 50% inhibitory concentration (IC50) (in the assay on NCI-H2171; in assay [1]) were under 300 nM and 300 to 1000 nM, respectively.

Consider `COCCNCCC(=O)Nc1sc2c(c1-c1nc3cc(-c4cncc(OCCOC)c4)ccc3s1)CCNC2`, for which the figures for the IC50 (in the assay with NCI-H2171; in assay [1]) were under 300 nM and 300 to 1000 nM, respectively.

For the compound `COCCNCCC(=O)Nc1sc2c(c1-c1nc3cc(-c4ccc(N5CCN(C)CC5)cc4)ccc3s1)CCNC2`, the concentration for half-maximal inhibition (IC50) in the assay on NCI-H2171 was under 300 nM; in assay [1] it was 300 to 1000 nM.

As for `CC(C)N1CCc2c(sc(NC(=O)CCNCc3ccccc3)c2-c2nc3ccccc3s2)C1`, the IC50 (in the assay on NCI-H2171; in assay [1]) was 1000 to 10000 nM each time.

`CNC(=O)Nc1ccc(-c2ccc3nc(-c4c(NC(=O)CCNCCOC)sc5c4CCNC5)sc3c2)cc1`: the IC50 in the assay on NCI-H2171 is under 300 nM; in assay [1], 1000 to 10000 nM.

In the case of `CC(C)NCCC(=O)Nc1sc2c(c1-c1nc3cc(-c4ccc(O)cc4)ccc3s1)CCNC2`, the concentration for half-maximal inhibition (IC50) is 300 to 1000 nM in the assay on NCI-H2171 and under 300 nM in assay [1].

Turning to `COCCNCCC(=O)Nc1sc2c(c1-c1nc3ccc(-c4cccc(C(=O)N(C)C)c4)cc3s1)CCNC2`, the concentration for half-maximal inhibition (IC50) with NCI-H2171 is under 300 nM; in assay [1] it was 300 to 1000 nM.

For the compound `COCCNCCC(=O)Nc1sc2c(c1-c1nc3cc(-c4cnn(C)c4C)ccc3s1)CCNC2`, the values for the concentration for half-maximal inhibition (IC50) (with NCI-H2171; in assay [1]) were under 300 nM and 300 to 1000 nM, respectively.

For `COCCNCCC(=O)Nc1sc2c(c1-c1nc3ccc(-c4cnn(C)c4C)cc3s1)CCNC2`, the IC50 in the assay on NCI-H2171 was under 300 nM; in assay [1], 300 to 1000 nM.

Turning to `COCCNCCC(=O)Nc1sc2c(c1-c1nc3ccccc3s1)CCN[C@@H]2C`, the half-maximal inhibitory concentration (IC50) (in the assay with NCI-H2171; in assay [1]) was under 300 nM in each case.

As to `CC(C)NCCC(=O)N(C)c1sc2c(c1-c1nc3cc(-c4cnn(C)c4)ccc3s1)CCNC2`, the IC50 in the assay on NCI-H2171 is 1000 to 10000 nM; in assay [1], over 10000 nM.

As to `CC(C)NCCC(=O)Nc1sc2c(c1-c1nc3cc(C4CC4)ccc3s1)CCNC2`, the half-inhibitory concentration (IC50) with NCI-H2171 is under 300 nM; in assay [1], 300 to 1000 nM.

For `CSc1cccc2sc(-c3c(NC(=O)CCNC(C)C)sc4c3CCNC4)nc12`, the IC50 was under 300 nM in the assay on NCI-H2171 and 300 to 1000 nM in assay [1].

On to `COCCNCCC(=O)Nc1sc2c(c1-c1nc3cc(-c4ccnc(C)c4)ccc3s1)CCNC2`, for which the half-inhibitory concentration (IC50) was under 300 nM in the assay on NCI-H2171 and 300 to 1000 nM in assay [1].

Regarding `COCCNCCC(=O)Nc1sc2c(c1-c1nc3ccc(-c4cnc(N)nc4)cc3s1)CCNC2`, the results for the IC50 (with NCI-H2171; in assay [1]) were under 300 nM and 300 to 1000 nM, respectively.

As for `O=C(CCNC1C2CC1C2)Nc1sc2c(c1-c1nc3ccccc3s1)CCNC2` (stereo not given), the IC50 was 300 to 1000 nM in the assay with NCI-H2171 and 1000 to 10000 nM in assay [1].

On to `COCCNCCC(=O)Nc1sc2c(c1-c1nc3cc(-c4c[nH]nc4C)ccc3s1)CCNC2`, for which the 50% inhibitory concentration (IC50) (in the assay with NCI-H2171; in assay [1]) was 300 to 1000 nM in each case.

Consider `CC(C)N1CCc2c(sc(NC(=O)CCN(C)C)c2-c2nc3ccccc3s2)C1`, for which the IC50 in the assay on NCI-H2171 is under 300 nM; in assay [1], 300 to 1000 nM.

Regarding `CCc1cccc2sc(-c3c(NC(=O)CCNCCOC)sc4c3CCNC4)nc12`, the half-inhibitory concentration (IC50) (with NCI-H2171; in assay [1]) was under 300 nM each time.

On to `COCCNCCC(=O)Nc1sc2c(c1-c1nc3c(N4CCOCC4)cccc3s1)CCNC2`, for which the IC50 is 300 to 1000 nM in the assay with NCI-H2171 and over 10000 nM in assay [1].

Turning to `NCCC(=O)Nc1sc2c(c1-c1nc3ccccc3s1)CCNC2`, the IC50 (in the assay on NCI-H2171; in assay [1]) was under 300 nM in each case.
